Among the data in patent US20200239530A1, “COMPOUNDS AND METHODS OF MODULATING PROTEIN DEGRADATION” (Vividion Therapeutics, Inc., priority 2017, published 2020) are inhibition and Liganded values, retold here.

The structures appear in SMILES notation.

What all share (format): binding
In one assay the target is T1, Q8NF64 (Homo sapiens, UniProt Q8NF64).
T1 construct: 200 μL of lysate containing 5 mg/ml proteome was treated with 2 μL of 100× compound stock; endogenous in cells
Kind of assay: Cysteine liganding, probe competition (Table 2B). As to conditions: one line per cysteine site, read-out: KB02_500 uM_percent_inhibition. The source says: (§1) The following 96-well sample prep protocol was used for sample preparation.

Assay [1] concerns the target T2, VDAC2 Voltage-dependent anion-selective channel protein (Homo sapiens, UniProt P45880).
T2 construct: Cells were resuspended in cold PBS on ice and sonicated with a probe sonicator to achieve lysis; endogenous in cells
Kind of assay: Cysteine liganding, probe competition. The essentials:
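Lysates from probe-sonicated cells in PBS (5 mg/ml proteome) were exposed to compound for 1 hr at 25° C, then labelled with desthiobiotin iodoacetamide probe (10 mM stock) for 1 hr at 25° C. Probe-tagged peptides were streptavidin-enriched after trypsin digestion.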

In the next assay the target is Q9NXR7 (Homo sapiens, UniProt Q9NXR7). Kind of assay: Competitive cysteine profiling, probe competition (Table 2B). On the set-up: endogenous in cells. Conditions: read-out: KB02_500 uM_percent_inhibition.
Description: as §1

Another assay addresses T3, Q9C0D3 (Homo sapiens, UniProt Q9C0D3).
T3 construct: endogenous in cells; whole-cell lysate
Nature of the assay: Cysteine liganding, probe competition (Table 2B). As to conditions: one line per cysteine site, read-out: KB05_100 uM_percent_inhibition.
Description: as §1

For another assay, the target named is T4, Q9ULT6 (Homo sapiens, UniProt Q9ULT6).
T4 construct: 200 μL of lysate containing 5 mg/ml proteome was treated with 2 μL of 100× compound stock; endogenous in cells
Nature of the assay: Cysteine liganding, probe competition (Table 2B). As to conditions: one line per cysteine site, read-out: KB05_500 uM_percent_inhibition.
Description: as §1

A further assay deals with Q99728 (Homo sapiens, UniProt Q99728). Nature of the assay: Competitive cysteine profiling, probe competition (Table 2B). On the set-up: endogenous in cells. Conditions: read-out: KB05_100 uM_percent_inhibition.
Description: as §1

In the case of `COc1ccc2c(c1)CCCN2C(=O)CCl` [KB02], the inhibition at 500 µM came out at 46% on Q8NF64 and 50% at Q9NXR7. Moreover, the Liganded result in assay [1] (VDAC2 Res# 210, uniprot P45880) is “YES”; in assay [1] (VDAC2 Res# 227, uniprot P45880), “YES”.

Regarding `C=CC(=O)N(c1ccccc1)c1ccc(Br)cc1` [KB05], the inhibition at 100 µM at Q9C0D3 is 48%; at Q99728 it was 31%. Further, on Q9ULT6, the inhibition at 500 µM is 36%.
